Data set [1] is described as follows: method code SF-RC, from DOI: 10.1016/j.nucmedbio.2011.07.009, PMID: 21958846. The conditions noted are these: pH 7.4.
Data set [2] is described as follows: method code SF-HPLC, from DOI: 10.1021/jm00109a018, PMID: 2033591. The conditions noted are these: pH 7.0.
Data set [3] can be described thus: method code SF-AS, from DOI: 10.1021/jm010817i, PMID: 11806714. The conditions noted are these: pH 7.4.
Data set [4] in a line: method code SF-GLC, from DOI: 10.1016/j.chemosphere.2005.05.003, PMID: 15967478.
A short description of data set [5]: method code SF, from Zhuang, J.; Mo, H.; An, F.; Yang, K. (1993). Determination of the water solubility and n-octanol/water partition coefficient of pesticide N-(2,4-dimethylphenyl)-N'-methylamidine. Huanjing Huaxue, ….
Assay in data set [6]: not given
This is another data set of the same source.

Assay in data set [7]: not given
This is another data set of the same source.

Data set [8] is described as follows: method code SF, from DOI: 10.1016/s0021-9673(01)84246-1.
Assay in data set [9]: not given
This is another data set of the same source.

A short description of data set [10]: method code SF-AS, from PMID: 6692390. The following applies: pH 4.0.
Data set [11] can be described thus: method code SF-AS, from DOI: 10.1021/jm00162a004, PMID: 3023612.
Data set [12] is described as follows: method code SF-GLC, from DOI: 10.1021/je970069v.
Data set [13] is described as follows: method code SF-RC, from DOI: 10.1182/blood.v76.11.2389.bloodjournal76112389, PMID: 2257308. The conditions noted are these: pH 7.4.
The nature of data set [14]: method code SF-AS, from DOI: 10.1021/jm00047a013, PMID: 7932583.
For data set [15] the following is noted: pH 9.2.
The nature of data set [16]: method code SF-RC, from DOI: 10.1002/jlcr.2580210110. The conditions noted are these: pH 7.4.
Data set [17] in a line: method code SF, from DOI: 10.1016/0006-291x(88)90214-8. The following applies: pH 7.4.
The nature of data set [18]: method code SF-AS, from DOI: 10.1021/jm00154a021, PMID: 3959031. The following applies: pH 9.0.
Data set [19] in a line: method code SF-AS, from Dai, Y.; Jiang, J.; Wang, Z.; Xue, Q. (2007). Experimental and QPSR studies on octanol-water partition coefficient of substituted anilines. J. Struct. Chem, 26(12)1449-1454.
Assay in data set [20]: not given
This is another data set of the same source.

A short description of data set [21]: method code SF-RC, from DOI: 10.1021/jm070791g.s001, PMID: 17960926.
Data set [22] in a line: method code SF-AS, from DOI: 10.1139/y89-042, PMID: 2547502. The following applies: pH 7.4.
A short description of data set [23]: method code SF-AS, from DOI: 10.1002/jps.2600711105. The following applies: pH 7.4.
Assay in data set [24]: not given
This is another data set of the same source.

Data set [25] is described as follows: method code SF-AS, from DOI: 10.1016/s0045-6535(00)00181-8, PMID: 11272912.
The nature of data set [26]: method code SF-AS, from DOI: 10.1021/jm00128a017, PMID: 2754702. The conditions noted are these: pH 7.4.
Data set [27] can be described thus: method code SF-RC, from Audran, M.; Chanal, J.; Marignan, R.; Cousse, H. (1984). Correlations between structure and pharmacokinetic parameters in a series of cresotinamides. International Journal of Pharmaceutics, …. The following applies: pH 1.0.
The nature of data set [28]: method code SF-AS, from DOI: 10.1111/j.2042-7158.1980.tb13082.x, PMID: 6110743.
Data set [29] in a line: method code SF, from DOI: 10.1093/jnci/60.2.345, PMID: 621753.
Data set [30] in a line: method code SF-GLC,AS, from DOI: 10.2134/jeq1981.00472425001000030028x.
Data set [31] is described as follows: method code SF-AS, from DOI: 10.1016/0045-6535(95)00267-c.
A short description of data set [32]: method code SF-RC, from DOI: 10.1016/j.nucmedbio.2007.06.005, PMID: 17707813. The following applies: pH 7.4.
A short description of data set [33]: method code SF-HPLC, from DOI: 10.1002/hlca.19880710534. The conditions noted are these: pH 7.4.
A short description of data set [34]: method code SF-GLC, from DOI: 10.1016/0045-6535(95)00311-u.
Data set [35] is described as follows: method code SF-AS, from DOI: 10.2116/analsci.13.897. The following applies: pH 2.0.
The nature of data set [36]: method code SF-HPLC, from Blakemore, C.; Brown, H.; Durant, J.; Emmett, C.; Ganellin, R.; Parsons, E.; Rasmussen, C. (1980). SK&F 92994: a new histamine H2-receptor antagonist. COMMUNICATIONS: Part II. Br. J. Pharmacol., ….
Data set [37] is described as follows: method code SF-HPLC, from DOI: 10.1016/0378-5173(88)90220-7. The conditions noted are these: pH 7.4.
Assay in data set [38]: not given
This is another data set of the same source.

Assay in data set [39]: not given
This is another data set of the same source.

Data set [40] can be described thus: method code SF, from Ganellin, C. R., & Durant, G. J. (1981). Histamine H2-receptor agonists and antagonists. Burgers Medicinal Chemistry, 3, 487-552. The following applies: pH 9.2.
A short description of data set [41]: method code SF-AS, from DOI: 10.1002/jps.2600650731. The following applies: pH 11.5.
Data set [42] is described as follows: method code G-HPLC, from DOI: 10.1016/s0021-9673(01)94303-1.
Data set [43] is described as follows: method code SF-AS, from DOI: 10.1016/0005-2744(69)90103-x, PMID: 4387594.
A short description of data set [44]: method code SF-AS, from DOI: 10.1016/j.jct.2016.12.034. The following applies: pH 7.4.

This note sets out measurements from the SangsterLogP compilation.

Each structure is given as a SMILES string.

With `CCC(C)C1(CC)C(=O)NC(=O)NC1=O` (stereo not given), the logP was 1.58.

Consider `Cc1c(CC(CO)CF)n(C)c(=O)[nH]c1=O` (stereo not given), for which the log distribution coefficient (logD) in data set [1] is -0.56.

The compound `N=c1c2ncn([C@@H]3O[C@H](CO)C[C@@H]3F)c2ncn1O` showed a logD in data set [2] of -1.38.

As to `CC(=O)NCc1c(O)c(=O)cc(C)n1C`, the pH-dependent lipophilicity (logD) in [3] is -0.82.

For `CC1=CCC(C(C)C)C=C1` (stereo not given), the logP in data set [4] is 4.58. Regarding `CNC=Nc1ccc(C)cc1C`, the logP in data set [5] is 2.92. Compound `Cc1ccc(C(C)C)cc1` displayed a logP in data set [6] of 4.14. `Cc1cnc2n(c1=O)CCCC2C` (stereo not given) yielded a logP in [7] of 0.69. For `Nc1nc2c(ncn2[C@@H]2O[C@H](CO)[C@@H](O)[C@H]2O)c(=O)[nH]1`, in [8], the logP is -1.85. In turn, `CNC(=O)Oc1cc(C)c(C)cc1Cl` came in with a log partition coefficient (logP) in data set [9] of 2.3. In turn, `CC(=O)c1ccc(NC(=O)N(C)N=O)cc1` came in with a logD in data set [10] of 0.26. In turn, `CCCC1(CCC)CCC=[N+]1[O-]` showed a logP in data set [11] of 0.69.

`Cc1ccc(C(C)C)c(Cl)c1Cl` had a log partition coefficient (logP) in data set [12] of 5.5. `CCc1c(O)c(=O)ccn1CCOC` registered a logD in data set [13] of -0.08. For the compound `Cc1cn([C@H]2C[C@H](F)[C@@H](CO)O2)c(=O)[nH]c1=O`, the logP in [14] is -0.3. Regarding `CN(C)CNC(=O)c1ccccc1`, the logD in data set [15] was 0.85. `C1C2CC3CC1CC(C2)C3` yielded a logD in data set [16] of 5.2.

In data set [17], `Cc1cn([C@H]2CC[C@@H](CO)O2)c(=O)[nH]c1=O` registered a logD of -0.7. Compound `CN1CCN(CCn2cncc2[N+](=O)[O-])CC1` had a pH-dependent lipophilicity (logD) in [18] of -0.2. Take `CCN(CC)c1ccccc1`: the logP in data set [19] was 3.11. On to `C1COC(NC(C2CC2)C2CC2)=N1`, for which, in data set [20], the logP is 1.63. Consider `O=c1[nH]c(=O)n([C@H]2C=C[C@@H](CO)C2)cc1I`, for which the logP in data set [21] was determined as 0.29. `Nc1ncnc2c1ncn2[C@@H]1O[C@@H]2COP(=O)(O)O[C@H]2[C@H]1O` came in with a logD in data set [22] of -2.96.

As to `COCC(O)Cn1c([N+](=O)[O-])nc(C(C)=O)c1C` (stereo not given), the logD in data set [23] came out at 0.03. The compound `CC(C)N1C(=O)c2ccccc2NS1(=O)=O` gave a logP in [24] of 1.95. With `COc1cc(C=O)c(OC)c(OC)c1`, the logP in data set [25] stood at 1.91. `Nc1nc(N)c2ncn([C@H]3C=C[C@@H](CO)O3)c2n1`: the logD in [26] is -0.48.

For `CCNC(=O)c1cc(Cl)cc(C)c1O`, in data set [27], the logD amounted to 3.55. `CCCCOc1cccc(O)c1` gave a logP in [28] of 3.03.

`O=NN(CCCl)C(=O)NCCCCNC(=O)N(CCCl)N=O` had a logP in data set [29] of 0.9. The compound `CCN(CC)c1nc(Cl)nc(NC(C)C)n1` gave a logP in data set [30] of 3.94. With `CC(C)(C#N)Nc1nc(Cl)nc(NC2CC2)n1`, in [31], the logP was 1.99.

On to `Nc1nc(F)c2ncn(CCC(CO)CO)c2n1`, for which, in [32], the logD is -0.52. The compound `C=CCC1(CC(C)O)C(=O)NC(=O)NC1=O` (stereo not given) had a log distribution coefficient (logD) in [33] of -0.01. On to `CCCCCCCCCC(Cl)(Cl)Cl`, for which, in [34], the log partition coefficient (logP) came out at 5.85. In data set [35], `CCC(C(=O)O)c1ccccc1` (stereo not given) came in with a log distribution coefficient (logD) of 2.47.

As for `COC(=O)c1ccc(CN(C)N=O)cc1`, in data set [36], the log partition coefficient (logP) is 1.21.

As for `CC(=O)N(C)S(=O)(=O)c1ccc(C)cc1`, the logD in data set [37] was determined as 1.73. In turn, `CC(C)c1ccc(CO)cc1` showed a logP in data set [38] of 2.49. `CC1(C)CC(C(=O)O)CC(C)(C)N1O` returned a logP in data set [39] of 1.25. For the compound `CNC(=S)NCCCCc1nc[nH]c1C`, the logD in data set [40] was 0.85.

Turning to `CC/N=C(N)/N=C(\N)Nc1ccc(Cl)cc1`, in data set [41], the logD is 2.14. In data set [42], `CCCCc1ccccc1` returned a log partition coefficient (logP) of 4.29.

Compound `CCCCNc1ccccc1` had a logP in [43] of 3.58.

Compound `CC(=O)Nc1ccc(C=NNC(N)=S)cc1` registered a pH-dependent lipophilicity (logD) in data set [44] of 1.7.

One may read the logP as the decadic logarithm of the partition coefficient of the neutral form, usually between octanol and water. A higher logP goes with a more lipophilic compound. A word on the logD: it is lipophilicity at a set pH, counting ionised and neutral species. Read a high logD as higher lipophilicity.
